The data set in a line: Solubility of FT4 compounds and polymer in organic solvents. Type of data set: physicochemical. Particulars: for solubility in diethyl ether / solubility in hexane: room temperature. From the text: Table 2 provides solubility properties and a solubility comparison of di-Br compound 7 and di-tin compound 8.

Each structure is given as a SMILES string.

Consider `CCCCCCCCCCCCCCCCCc1[c]([Sn]([CH3])([CH3])[CH3])sc2c1sc1c3s[c]([Sn]([CH3])([CH3])[CH3])c(CCCCCCCCCCCCCCCCC)c3sc21` [compound 8], for which the “solubility in diethyl ether” value is “freely soluble” and the solubility in hexane entry is “freely soluble”. In addition, the “solubility in hexane, toluene, CH2Cl2, or mixtures thereof” value (compared to the corresponding di-bromo compound Br-DC17FT4-Br) was “excellent solubility”.
For `CCCCCCCCCCCCCCCCCc1c(Br)sc2c1sc1c3sc(Br)c(CCCCCCCCCCCCCCCCC)c3sc21` [compound 7], the “solubility in diethyl ether” value is “practically insoluble” and the solubility in hexane result is “practically insoluble”. Where the note is “Table 2 solvents”, the “solubility in direct comparisons to compound 8” value is “essentially insoluble or only partially soluble”.

These data come from patent US8278346B2, “Di-tin fused thiophene compounds and polymers and methods of making” (Corning Incorporated, priority 2010, dated 2012).
